This is an account of results in patent publication US20240285514A1, “EXTRACTS OF EUTERPE OLERACEA, METHODS OF MAKING, AND USES THEREOF” (Naturesphix Limited, priority 2021, published 2024).

One data set deals with T1, MMP-1 enzyme (Homo sapiens, UniProt P03956).
T1 sequence (P03956 100-469): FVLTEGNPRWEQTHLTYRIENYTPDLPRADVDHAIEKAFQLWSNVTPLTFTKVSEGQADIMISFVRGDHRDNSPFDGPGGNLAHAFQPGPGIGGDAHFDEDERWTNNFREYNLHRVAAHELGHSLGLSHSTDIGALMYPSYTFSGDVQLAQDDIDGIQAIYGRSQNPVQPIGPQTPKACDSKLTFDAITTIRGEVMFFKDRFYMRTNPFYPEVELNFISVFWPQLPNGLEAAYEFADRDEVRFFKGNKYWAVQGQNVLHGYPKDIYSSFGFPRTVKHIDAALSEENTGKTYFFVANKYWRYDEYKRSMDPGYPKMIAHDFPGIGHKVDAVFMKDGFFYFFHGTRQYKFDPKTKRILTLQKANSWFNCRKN
Briefly: Metalloproteinase-1 (MMP-1) enzyme activity. The format is biochemical. On the procedure:
The MMP-1 enzyme was evaluated after incubation with the Vehicle (0.04% DMSO), ST-035 (10 μg/mL), Ascorbic acid Reference Substance (10 μg/mL), Ferulic acid Reference Substance (4 μg/mL) or positive control of the test, GM6001, a MMP-1 enzyme activity inhibitor. The bars represent the mean±standard error of the mean of 1 assay performed in triplicate. The percentage of inhibition was calculated in relation to the Vehicle group. For the statistical analysis a one-way analysis of variance (ANOVA) was used, followed by the Newman-Keuls test (*p<0.05 in comparison to Vehicle group).

The subject of data set [1] is reconstructed human tissue model. The experiment in a line: Skin irritation assay, reconstructed human epidermis (OECD TG439). Type of data set: cell-based. Conditions: 42 minutes treatment; three tissues. On the procedure:
The possible irritant action of ST-035 on a reconstructed human tissue model, as described in the OECD Guidelines for the Testing of Chemicals, Section 4, TG439 In Vitro Skin Irritation: Reconstructed Human Epidermis Test Method was evaluated. After receiving the tissues, they were readapted in growth medium overnight until the Treatment moment. After the readaptation, Negative Control, positive control (Reference Substance) or Test Substance were added in a 16 μL volume on the epidermis and maintained for 42 minutes (±1 minute). Following, each tissue went through a 25-phosphate buffer washing process to remove the Treatments. Subsequently, the epidermis was maintained for 42 hours (±1 hour) in growth medium in a CO2 incubator (5±0.1%) at 37±0.1° C. After this period, the tissues were incubated for 3 hours (±15 minutes) with a 1 mg/mL MTT solution and then 2 hours with isopropanol for the formazan complex extraction. Then, 200 μL of each well (in duplicate) were transferred to a 96-well plate for absorbance reading at 570 nm.
Skin irritation assay in a reconstructed human skin model is an alternative method that follows the OECD TG439 standards and is validated by international centers, with international regulatory acceptance. […]

Data set [2] has as its system human keratinocytes. The experiment in a line: Scavenger potential against UVB radiation in keratinocytes (DCFH-DA probe). The format is cell-based. The note with it: 10 μg/mL added immediately prior to UVB 90 mJ/cm^2; vs vehicle+UVB. On the procedure: (§1) The 2′,7′ dichlorofluorescein diacetate (nonfluorescent) is de-esterified intracellularly and becomes a 2′,7′ highly fluorescent dichlorofluorescein after oxidation. Fluorescence detection was performed at 485 nm excitation wavelength and 535 nm emission wavelength in SpectraMax i3x (Molecular Devices) equipment. […] The concentrations of the Test Substance (10 μg/mL), Ascorbic acid Reference Substance (10 μg/mL) and Ferulic acid Reference Substance (4 μg/mL) were prepared according to the description above (Test Substance, Reference Substances and Vehicle Preparation).

The subject of data set [3] is human keratinocytes. The experiment in a line: Scavenger activity against UVB radiation, section headed 'in Fibroblasts' (FIG. 14). Type of data set: cell-based. Conditions: 10 μg/mL added immediately prior to UVB 90 mJ/cm2; vs vehicle+UVB. On the procedure:
as §1

For another data set, the system named is human fibroblasts. Briefly: Antioxidant potential against UVB in human fibroblasts (DCFH-DA probe). The format is cell-based. The note with it: pre-incubation before UVB 90 mJ/cm^2, vs vehicle+UVB. How it is done:
as §1, with “Preparation). The human fibroblasts were incubated with a DCFH-DA probe (50 μM) for 30 minutes. After this period, the fibroblasts were incubated. For statistical analysis, one-way variance analysis (ANOVA) was used, followed by Newman-Keuls test (#p<0.05 compared to Vehicle group and *p<0.05 compared to Vehicle+UVB 90 mJ/cm^2).” for “Preparation).”

The test system of data set [4] is human keratinocytes. Briefly: Intrinsic antioxidant activity (basal EROs production) with DCFH-DA probe in keratinocytes. The format is cell-based. Conditions: no UVB, vs vehicle. How it is done:
as §1, with “Preparation). The intrinsic antioxidant activity of Test Substance in human keratinocytes was evaluated as follows. […] Subsequently, the production of EROs was evaluated through the microplate reader (485/535 nm). Two different assays were performed in triplicate. For the statistical analysis, one-way analysis of variance (ANOVA) was used, followed by the Newman-Keuls test (*p<0.05 in comparison to Vehicle group).” for “Preparation).”

Data set [5] deals with human keratinocytes. The experiment in a line: Antioxidant potential against UVB radiation in keratinocytes (24 h pre-treatment, DCFH-DA probe). Type of data set: cell-based. The note with it: 10 μg/mL; incubation 24 hours before UVB 90 mJ/cm^2; vs vehicle+UVB. How it is done:
as §1

The subject of a further data set is tyrosinase. The experiment in a line: Tyrosinase enzyme activity. The format is biochemical.

Method for tyrosinase: After that, 170 μL of L-tyrosine substrate 1 mM, solubilized in a potassium phosphate buffer 50 mM (pH 6.5) were added. After the incubation period of 30 to 40 minutes, the plate was read at 490 nm.
For the statistical analysis one-way analysis of variance (ANOVA) was used, followed by the Newman-Keuls test (*p<0.05 in comparison to the Vehicle group). The percentage of inhibition was calculated in relation to the Vehicle group.

Consider `CNC(=O)[C@H](Cc1c[nH]c2ccccc12)NC(=O)[C@@H](CC(=O)NO)CC(C)C` [GM6001], for which, at MMP-1 enzyme (1 μM, assay validation), the “reduction of MMP-1 activity” value is recorded as 81.3±1.5%.

With `CCCCCCCCCCCCOS(=O)(=O)[O-].[Na+]` [SDS, sodium dodecylsulfate], the “tissue viability mean (absorbance at 570 nm)” value in data set [1] is 0.018±0.001.

What is called inhibition is the share of the control response that was lost under treatment. The low end stands for a response near the control, the high end for a response far below the control. In the case of `O=C1O[C@H]([C@@H](O)CO)C(O)=C1O` [ascorbic acid], the “reduction of UVB induced production of EROs (scavenger potential)” value with human keratinocytes [2] was 46.2±2.0%. In addition, the “reduction of UVB induced production of EROs (scavenger potential, FIG. 14)” value in the data set on human keratinocytes [3] is on record as 46.2±2.0%. In addition, the “reduction of production of reactive oxygen species (antioxidant potential)” value in the data set on human fibroblasts (10 μg/mL) is 30.5±6.2%. The “reduction of basal production of EROs” value with human keratinocytes [4] (10 μg/mL, 4 hours) is listed as “did not change”; with human keratinocytes [4] (10 μg/mL, 24 hours) it was “did not change”. The “decrease of production of EROs after UVB (antioxidant capacity)” value in the data set with human keratinocytes [5] is listed as 44.3±11.4%. This molecule also had an inhibition at 10 µg/mL on MMP-1 enzyme (10 μg/mL, vs vehicle) of 9.2 ± 1.5%.

Consider `COc1cc(/C=C/C(=O)O)ccc1O` [ferulic acid], for which, in the data set on human fibroblasts (4 μg/mL), the “reduction of production of reactive oxygen species (antioxidant potential)” value is recorded as 47.4±0.5%. Besides, the “reduction of basal production of EROs” value with human keratinocytes [4] (4 μg/mL, 4 hours) is listed as 26.8±2.4%; in the data set on human keratinocytes [4] (4 μg/mL, 24 hours), 45.8±6.6%. In addition, the “change of MMP-1 activity in vitro” value on MMP-1 enzyme (4 μg/mL, vs vehicle) is recorded as “did not change”.

On to `O=c1cc(CO)occ1O` [kojic acid], for which the “reduction of tyrosinase enzyme activity” value with tyrosinase (300 μg/mL) was 43%; in the data set with tyrosinase (1,000 μg/mL), 84%.
